Reference: patent publication US10035810B2, “5,6-dihydro-4H-benzo[b]thieno-[2,3-d]azepine derivative” (PULMOCIDE LIMITED, priority 2014, dated 2018)

What was measured:
[1] = system: RSV NS-1 gene transcripts; assay: RSV infection in cotton rats: RSV NS-1 gene transcript in lung (qRT-PCR); type: in vivo, cotton rats (Sigmodon hispidus); details: infected cotton rats
Experimental: RSV Infection in Cotton Rats
Male Sigmodon hispidus cotton rats between 6 and 8 weeks of age were infected with hRSV/A/Long (ATCC, Manassas, Va.; 10^5 pfu) in a volume of 0.1 mL of sucrose stabilizing media. Compound (I) was dissolved in 100% DMSO (at 3.3, 10, 33 and 100 mg/mL), then diluted at 1:10 in isotonic saline to achieve 10% DMSO in all treatments. Formulations were then sonicated to produce suspensions. The resulting suspensions were administered intranasally (50 μL) by pipette 4 hr before infection (on day 0), and then on days 1, 2 and 3 post infection. Four days after RSV challenge, the animals were euthanised and the lungs were removed. The left lobe was used for viral titration via plaque assay and the lingular lobe for RSV/A/Long NS-1 qRT-PCR and cytokine qRT-PCR.
Total RNA was also extracted from homogenized lung tissue (RNeasy purification kit; Qiagen) and a sample (1 μg) was used to prepare cDNA using QuantiTect Reverse Transcription Kit (Qiagen). For real-time PCR reactions (RSV NS-1 and RANTES genes) the QuantiFast SYBR® Green PCR Kit (Qiagen) was used in a final volume of 25 μL, with final primer concentrations of 0.5 μM. […] Baseline cycles and cycle threshold (Ct) were calculated by the iQ5 software in the PCR Base Line Subtracted Curve Fit mode. […] The mRNA levels were expressed as the geometric mean±SEM for all animals in a group.

RSV A2 = assay: Virus titre in air-liquid interface (ALI) cultured bronchial epithelial cells (plaque assay); type: cell-based, respiratory syncytial virus
Experimental: Assessment of Virus Titre in Air-Liquid Interface (ALI) Cultured Bronchial Epithelial Cells
ALI cultured human bronchial epithelial cells were sourced from Epithelix Sàrl (Geneva, Switzerland) and maintained by changing the basal media every 3-4 days, whilst the apical surface was washed once weekly with PBS. On day 0, the apical surface of each well was washed once with sterile PBS (300 μL) and the inserts were transferred to new 24-well plates containing fresh MucilAir culture medium (780 μL; EP04MM). RSV A2 (50 μL; diluted in MucilAir culture medium to give a final MOI of 0.01) was added to cells for 1 hr (37° C./5% CO2). For the purposes of standardizing MOI calculations, each MucilAir insert was estimated to contain 2×10^5 apical facing cells per well. Virus inoculum was removed with a pipette and inserts were washed twice with sterile PBS (300 μL).
Sampling was conducted by adding sterile PBS (300 μL) to the apical surface of each well for 5 min. The apical sample was then removed and transferred to tubes containing 50% sucrose dissolved in PBS (100 μL) before being stored at −80° C. This harvesting procedure was repeated daily beginning on day 0 and concluding on day 7. […]
Virus titre was quantified by plaque assay. […] Plaques were counted by eye and confirmed using light microscopy, allowing the calculation of plaque forming units per mL.

`Cc1cnc(N2CC3(CCOCC3)C2)c(C(=O)Nc2ccc(C(=O)N3CCc4cc(C(=O)Nc5c(C)cccc5F)sc4-c4ccccc43)cc2)c1` [Compound (I), N-(2-fluoro-6-methylphenyl)-6-(4-(5-methyl-2-(7-oxa-2-azaspiro[3.5]nonan-2-yl)nicotinamido)benzoyl)-5,6-dihydro-4H-benzo[b]thieno[2,3-d]azepine-2-carboxamide] was tested, and the “RSV NS-1 gene transcripts in lung (in words)” value [1] was “dose-dependent inhibition of RSV NS-1 gene transcripts”, the “Inhibition of RSV titre in ALI culture (in words)” value (RSV A2; early intervention, daily day 0 to day 7, 0.1 μg/mL, over 7 days) was “complete inhibition” and the “Virus titre in ALI culture (in words)” value (RSV A2; late intervention, administered from day 3, days 6 and 7 post infection) was “dramatic reduction of virus titre”.
